Source: ChEMBL document CHEMBL2331159, “Radiolytic transformation of rotenone with potential anti-adipogenic activity” (Bioorg Med Chem Lett, 2013)

Legend:
[1] = molecular target: T1, Pancreatic triacylglycerol lipase (Sus scrofa, UniProt P00591); test: (§1) Inhibition of pig pancreatic lipase assessed as hydrolysis of p-nitrophenylbutyrate to p-nitrophenol
T1 sequence (P00591 whole entry): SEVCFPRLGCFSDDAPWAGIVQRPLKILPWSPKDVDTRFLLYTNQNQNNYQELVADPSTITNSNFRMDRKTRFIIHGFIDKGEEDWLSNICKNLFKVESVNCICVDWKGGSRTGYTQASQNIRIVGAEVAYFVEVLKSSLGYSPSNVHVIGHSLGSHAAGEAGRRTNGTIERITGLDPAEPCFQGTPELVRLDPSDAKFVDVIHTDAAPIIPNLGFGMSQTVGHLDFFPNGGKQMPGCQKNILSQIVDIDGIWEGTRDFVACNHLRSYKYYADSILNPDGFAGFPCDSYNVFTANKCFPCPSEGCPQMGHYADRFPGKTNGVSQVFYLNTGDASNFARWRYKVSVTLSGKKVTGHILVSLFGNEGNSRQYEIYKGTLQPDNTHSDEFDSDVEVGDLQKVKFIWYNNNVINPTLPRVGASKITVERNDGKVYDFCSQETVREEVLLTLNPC

3T3-L1 [2] = test: Cytotoxicity against mouse 3T3L1 cells assessed as cell viability at 0.02 to 20 uM by MTT assay; assay type: cell-based; details: 3t3-l1, 20 µM
[3] = molecular target: T2, Pancreatic triacylglycerol lipase (Sus scrofa) (UniProt P00591); test: as §1
T2 sequence (whole entry): T1 sequence (P00591 whole entry)

3T3-L1 [4] = test: Antiadipogenic activity against mouse 3T3L1 cells assessed as inhibition of lipid deposition at 2 uM by Oil Red O staining; assay type: functional
3T3-L1 [5] = test: Cytotoxicity against mouse 3T3L1 cells assessed as cell viability upto 2 uM by MTT assay; assay type: cell-based

| SMILES | IC50 [1] | Activity (3T3-L1 [2]) | inhibition [3] | inhibition at 2 µM (3T3-L1 [4]) | Activity (3T3-L1 [5]) |
| --- | --- | --- | --- | --- | --- |
| C=C(C)[C@H]1Cc2c(ccc3c2O[C@@H]2COc4cc(OC)c(OC)cc4[C@@H]2C3=O)O1 (stereo in doubt) [ROTENONE] | 79.1 µM |  |  |  |  |
| C=C(C)[C@H]1Cc2c(ccc3c2O[C@@H]2COc4cc(OC)c(OC)cc4[C@@H]2C3=O)O1 (stereo in doubt; 1) [ROTENONE] | > 500 µM | Toxic |  |  |  |
| C=C(C)[C@H]1Cc2c(ccc3c2O[C@@H]2COc4cc(OC)c(OC)cc4[C@@H]2[C@@]32CO2)O1 [ROTENOISIN A] | 6.3 µM |  | Dose-dependent effect | 70% | Non-toxic |
| C=C(C)[C@H]1Cc2c(ccc3c2O[C@@H]2COc4cc(OC)c(OC)cc4[C@@H]2[C@]32C[C@H]3O[C@@]3(O)[C@H](O)O2)O1 [ROTENOISIN B] | 28.4 µM |  |  | 70% | Non-toxic |
